test system: Alopecurus myosuroides (ALOMY); assay: Example B pre-emergence herbicidal activity, glasshouse pot test; assay type: in vivo; details: 312 h, rate 250 g/ha, evaluated after 13 days, read-out: Pre-emergence activity ALOMY (100=total damage to plant; 0=no damage to plant)
Procedure, shortened: (§1)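 Pot-grown plants sprayed one day after sowing (pre-emergence) or after 8 days (post-emergence) with compound in acetone/water 50:50 containing 0.5% Tween 20. Glasshouse at 24/16 °C day/night, 14 h light, 65% humidity; damage scored after 13 days, 0 = none to 100 = total.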

SMILES | pest or weed control at 250 g/ha
CCc1ccc(-c2ccc(Cl)nc2Cl)cc1C1=C(O)C(C)(C)C(=O)C(C)(C)C1=O [Compound B-29] | 0%
CCc1ccc(-c2ccc(Cl)nc2C)cc1C1=C(O)C(C)(C)C(=O)C(C)(C)C1=O [Compound B-30] | 0%
CCc1ccc(-c2ccc(Cl)cc2F)cc1C1=C(O)C(C)(C)C(=O)C(C)(C)C1=O [Compound B-31] | 0%

test system: Amaranthus retroflexus (AMARE); assay: as above; assay type: in vivo; details: 312 h, rate 250 g/ha, evaluated after 13 days, read-out: Pre-emergence activity AMARE (100=total damage to plant; 0=no damage to plant)
Procedure, shortened: as §1

SMILES | pest or weed control at 250 g/ha
CCc1ccc(-c2ccc(Cl)nc2Cl)cc1C1=C(O)C(C)(C)C(=O)C(C)(C)C1=O [Compound B-29] | 0%
CCc1ccc(-c2ccc(Cl)nc2C)cc1C1=C(O)C(C)(C)C(=O)C(C)(C)C1=O [Compound B-30] | 0%
CCc1ccc(-c2ccc(Cl)cc2F)cc1C1=C(O)C(C)(C)C(=O)C(C)(C)C1=O [Compound B-31] | 0%

test system: Solanum nigrum (SOLNI); assay: as above; assay type: in vivo; details: 312 h, rate 250 g/ha, evaluated after 13 days, read-out: Pre-emergence activity SOLNI (100=total damage to plant; 0=no damage to plant)
Procedure, shortened: as §1

SMILES | pest or weed control at 250 g/ha
CCc1ccc(-c2ccc(Cl)nc2Cl)cc1C1=C(O)C(C)(C)C(=O)C(C)(C)C1=O [Compound B-29] | 0%
CCc1ccc(-c2ccc(Cl)nc2C)cc1C1=C(O)C(C)(C)C(=O)C(C)(C)C1=O [Compound B-30] | 0%
CCc1ccc(-c2ccc(Cl)cc2F)cc1C1=C(O)C(C)(C)C(=O)C(C)(C)C1=O [Compound B-31] | 0%

test system: Avena fatua (AVEFA); assay: as above; assay type: in vivo; details: 312 h, rate 250 g/ha, evaluated after 13 days, read-out: Pre-emergence activity AVEFA (100=total damage to plant; 0=no damage to plant)
Procedure, shortened: as §1

SMILES | pest or weed control at 250 g/ha
CCc1ccc(-c2ccc(Cl)nc2Cl)cc1C1=C(O)C(C)(C)C(=O)C(C)(C)C1=O [Compound B-29] | 0%
CCc1ccc(-c2ccc(Cl)nc2C)cc1C1=C(O)C(C)(C)C(=O)C(C)(C)C1=O [Compound B-30] | 0%
CCc1ccc(-c2ccc(Cl)cc2F)cc1C1=C(O)C(C)(C)C(=O)C(C)(C)C1=O [Compound B-31] | 20%

test system: Setaria faberi (SETFA); assay: as above; assay type: in vivo; details: 312 h, rate 250 g/ha, evaluated after 13 days, read-out: Pre-emergence activity SETFA (100=total damage to plant; 0=no damage to plant)
Procedure, shortened: as §1

SMILES | pest or weed control at 250 g/ha
CCc1ccc(-c2ccc(Cl)nc2Cl)cc1C1=C(O)C(C)(C)C(=O)C(C)(C)C1=O [Compound B-29] | 30%
CCc1ccc(-c2ccc(Cl)nc2C)cc1C1=C(O)C(C)(C)C(=O)C(C)(C)C1=O [Compound B-30] | 0%
CCc1ccc(-c2ccc(Cl)cc2F)cc1C1=C(O)C(C)(C)C(=O)C(C)(C)C1=O [Compound B-31] | 50%

test system: Echinochloa crus-galli (ECHCG); assay: as above; assay type: in vivo; details: 312 h, rate 250 g/ha, evaluated after 13 days, read-out: Pre-emergence activity ECHCG (100=total damage to plant; 0=no damage to plant)
Procedure, shortened: as §1

SMILES | pest or weed control at 250 g/ha
CCc1ccc(-c2ccc(Cl)nc2Cl)cc1C1=C(O)C(C)(C)C(=O)C(C)(C)C1=O [Compound B-29] | 20%
CCc1ccc(-c2ccc(Cl)nc2C)cc1C1=C(O)C(C)(C)C(=O)C(C)(C)C1=O [Compound B-30] | 0%
CCc1ccc(-c2ccc(Cl)cc2F)cc1C1=C(O)C(C)(C)C(=O)C(C)(C)C1=O [Compound B-31] | 50%

test system: Alopecurus myosuroides (ALOMY); assay: Example B post-emergence herbicidal activity, glasshouse pot test; assay type: in vivo; details: 312 h, rate 250 g/ha, evaluated after 13 days, read-out: Post-emergence activity ALOMY (100=total damage to plant; 0=no damage to plant)
Procedure, shortened: as §1

SMILES | pest or weed control at 250 g/ha
CCc1ccc(-c2ccc(Cl)nc2Cl)cc1C1=C(O)C(C)(C)C(=O)C(C)(C)C1=O [Compound B-29] | 30%
CCc1ccc(-c2ccc(Cl)nc2C)cc1C1=C(O)C(C)(C)C(=O)C(C)(C)C1=O [Compound B-30] | 20%
CCc1ccc(-c2ccc(Cl)cc2F)cc1C1=C(O)C(C)(C)C(=O)C(C)(C)C1=O [Compound B-31] | 10%

test system: Amaranthus retroflexus (AMARE); assay: as above; assay type: in vivo; details: 312 h, rate 250 g/ha, evaluated after 13 days, read-out: Post-emergence activity AMARE (100=total damage to plant; 0=no damage to plant)
Procedure, shortened: as §1

SMILES | pest or weed control at 250 g/ha
CCc1ccc(-c2ccc(Cl)nc2Cl)cc1C1=C(O)C(C)(C)C(=O)C(C)(C)C1=O [Compound B-29] | 20%
CCc1ccc(-c2ccc(Cl)nc2C)cc1C1=C(O)C(C)(C)C(=O)C(C)(C)C1=O [Compound B-30] | 0%
CCc1ccc(-c2ccc(Cl)cc2F)cc1C1=C(O)C(C)(C)C(=O)C(C)(C)C1=O [Compound B-31] | 0%

test system: Solanum nigrum (SOLNI); assay: as above; assay type: in vivo; details: 312 h, rate 250 g/ha, evaluated after 13 days, read-out: Post-emergence activity SOLNI (100=total damage to plant; 0=no damage to plant)
Procedure, shortened: as §1

SMILES | pest or weed control at 250 g/ha
CCc1ccc(-c2ccc(Cl)nc2Cl)cc1C1=C(O)C(C)(C)C(=O)C(C)(C)C1=O [Compound B-29] | 30%
CCc1ccc(-c2ccc(Cl)nc2C)cc1C1=C(O)C(C)(C)C(=O)C(C)(C)C1=O [Compound B-30] | 10%
CCc1ccc(-c2ccc(Cl)cc2F)cc1C1=C(O)C(C)(C)C(=O)C(C)(C)C1=O [Compound B-31] | 0%

test system: Avena fatua (AVEFA); assay: as above; assay type: in vivo; details: 312 h, rate 250 g/ha, evaluated after 13 days, read-out: Post-emergence activity AVEFA (100=total damage to plant; 0=no damage to plant)
Procedure, shortened: as §1

SMILES | pest or weed control at 250 g/ha
CCc1ccc(-c2ccc(Cl)nc2Cl)cc1C1=C(O)C(C)(C)C(=O)C(C)(C)C1=O [Compound B-29] | 0%
CCc1ccc(-c2ccc(Cl)nc2C)cc1C1=C(O)C(C)(C)C(=O)C(C)(C)C1=O [Compound B-30] | 0%
CCc1ccc(-c2ccc(Cl)cc2F)cc1C1=C(O)C(C)(C)C(=O)C(C)(C)C1=O [Compound B-31] | 0%

test system: Setaria faberi (SETFA); assay: as above; assay type: in vivo; details: 312 h, rate 250 g/ha, evaluated after 13 days, read-out: Post-emergence activity SETFA (100=total damage to plant; 0=no damage to plant)
Procedure, shortened: as §1

SMILES | pest or weed control at 250 g/ha
CCc1ccc(-c2ccc(Cl)nc2Cl)cc1C1=C(O)C(C)(C)C(=O)C(C)(C)C1=O [Compound B-29] | 80%
CCc1ccc(-c2ccc(Cl)nc2C)cc1C1=C(O)C(C)(C)C(=O)C(C)(C)C1=O [Compound B-30] | 70%
CCc1ccc(-c2ccc(Cl)cc2F)cc1C1=C(O)C(C)(C)C(=O)C(C)(C)C1=O [Compound B-31] | 90%

test system: Echinochloa crus-galli (ECHCG); assay: as above; assay type: in vivo; details: 312 h, rate 250 g/ha, evaluated after 13 days, read-out: Post-emergence activity ECHCG (100=total damage to plant; 0=no damage to plant)
Procedure, shortened: as §1

SMILES | pest or weed control at 250 g/ha
CCc1ccc(-c2ccc(Cl)nc2Cl)cc1C1=C(O)C(C)(C)C(=O)C(C)(C)C1=O [Compound B-29] | 100%
CCc1ccc(-c2ccc(Cl)nc2C)cc1C1=C(O)C(C)(C)C(=O)C(C)(C)C1=O [Compound B-30] | 70%
CCc1ccc(-c2ccc(Cl)cc2F)cc1C1=C(O)C(C)(C)C(=O)C(C)(C)C1=O [Compound B-31] | 90%

— US8680012B2, “4-phenyl-pyrane-3,5-diones,4-phenyl-thiopyrane-3,6-diones and cyclohexanetriones as novel herbicides” (Syngenta Crop Protection LLC, priority 2006, dated 2014)
